Patent US20140235518A1, “AQUEOUS LIQUIDS CONTAINING AN ORGANIC COMPOUND AND AN N-(2-HYDROXYALKYL) SUBSTITUTED N-ALKYLAMINE” (TAMINCO, priority 2011, published 2014)

Key:
[1] = Comparative emulsion stability (p-terphenyl oil / 20% aqueous AAA); format: physicochemical; details: 10 g p-terphenyl oil + 10 g 20% wt/wt aqueous AAA, 10 s vortex
Description: The emulsion prepared with aqueous N-butyldiethanolamine (BDEA, C/OH ratio=4) was compared to an otherwise identical emulsion prepared with 20% aqueous N-(2-hydroxybutyl)-N-(2-hydroxyethyl)-N-ethylamine (HBHEEA, C/OH ratio=4).

[2] = Interfacial tension by drop weight measurements; format: physicochemical; details: 22° C.
Protocol: Drop weight measurements (i.e., the weight of a drop of one fluid as it is carefully released into another immiscible fluid) were used to evaluate the air/liquid and liquid/liquid interfacial tensions of 5% BDEA(aq) (butyldiethanolamine with C/OH ratio of 4), 5% HBHEEA(aq) (hydroxybutyl hydroxyethyl ethylamine with C/OH ratio of 4) and 2% HBHEBA(aq) (hydroxybutyl hydroxyethyl butylamine with C/OH ratio of 5) solutions at RT (22° C.). Note that a solution of 2% wt/wt of HBHEBA in water takes several minutes to form. About 1% wt/wt of HBHEBA dissolves in water fairly rapidly with stirring, while up to approximately 3% wt/wt can eventually be dissolved if stirring is continued for a longer period of time. The following relationship (oftentimes referred to as Tate's law) is used to relate drop weight to the interfacial tension between the drop fluid and the fluid being “dropped” into:
γ=mactual(1−ρfluid/ρdrop)g/(2πr)
Drop weights were taken 10 at a time and averaged. Three replicates of the drop average were taken to insure accuracy. […] The Table below contains drop weight data of some aqueous AAA solutions as dropped into air and into decane (ρ=0.73 g/ml):
The data for DI water dropped into air is used to standardize the pipette. The surface tension of water/air at 22° C. and 1 bar absolute P is 72 dynes/cm.
Using this value in the equation for DI water gives an orifice radius of 1.2 mm (0.12 cm). All of the measurements were carried out with the same pipette. Using the value of 1.2 mm as the radius of the pipette orifice allows for accurate calculation of the unknown interfacial tensions. Both BDEA and HBHEEA have the same MW and the same total C/OH ratio of 4, but both molecules display distinct interfacial tension properties. […] AAA's of identical total C/OH ratio and identical MW but with differing distribution of hydrophobic and hydrophilic regions display unique properties with respect to solubility, viscosity, volatility, impact on emulsion stability, and assistance to biostability.

[3] = test system: microbial population of spoiled coolant; assay: Biostability comparison, soluble oil emulsion diluted in spoiled coolant (CFU by oxygen pressure); format: cell-based; details: diluted 20 to 1 in spoiled coolant water
Protocol: (§1) The 100 ml test solutions were initially challenged with 10 ml of a lab maintained rancid soluble oil containing 50% tramp oil with an overall biological count of 8,800,000 CFU/ml. The degree of biological growth throughout the experiment was measured by the HMB-IV (Biotech International, Needville, Tex.) method for determination of the aerobic and facultative biological activity within a liquid metalworking fluid sample. This test method is based on the principle that most of the microorganisms in challenged metalworking fluids produce catalase while they are active. The addition of a known amount of a formulated HMB-IV oxidizing agent (hydrogen peroxide, buffer and chelating chemicals) to a standard volume of the sample fluid in a sealed test tube allows for an amount of oxygen proportional to the amount of active bacteria to be produced via the chemical reaction between active catalase enzyme and the hydrogen peroxide. A calibrated device is used to measure the amount of oxygen that is produced via the change in the pressure of the headspace within a test tube over a period of 15 minutes.
A challenge test comparison of the following soluble oil emulsion was carried out over several days.
The above concentrate formula was used with either 3 or 5 parts of one of the test amines. The soluble oil concentrate was diluted 20 to 1 in stagnant water made up from spoiled coolant (cultured from an original stock of rancid metalworking coolant used in a ferrous alloy cutting operation) which was in turn prepared by diluting 10% of a 60,000,000 CFU per ml of stock spoiled coolant with 90% tap water that had been allowed to air out for 24 hours. The challenge solution, which in this experiment is a control, was calculated to initially contain 6,000,000 CFU per ml microbial population. By the next day, the microbial content of the challenge solution had increased to 13,000,000 CFU per ml. By the end of the trial, the microbial content of the challenge solution had declined to 7,400,000 CFU. The concentration of microbes was determined by oxygen pressure development as described in Example 4.

[4] = Condition of challenged test solutions (pH, putrification odor, appearance); details: formula with 4.97% amine at 4% aqueous dilution
Protocol: (§2) The biostability of three fluids containing different amines was assessed in a challenge test format. The three amines used were DCHA (dicyclohexylamine), DBAE (dibutylaminoethanol) and HBHEBA (hydroxybutyl hydroxyethyl butylamine). The test solutions were approximately 100 ml in volume and maintained at RT. The following formula was used at 4% aqueous dilution for testing:
(§3) The second challenge at 3 days was 20 ml of a rancid semi-synthetic coolant with a CFU/ml reading of 10,000,000. A volume of 20 ml was necessary to bring the volume back to the original 100 ml (each CFU/ml measurement removes 10 ml of coolant). The third challenge at 10 days was an additional 20 ml of the 10,000,000 CFU/ml rancid semi-synthetic coolant.

[5] = test system: microorganisms in challenged metalworking fluids; assay: Challenge with amines as sole biostabilizing agent (HMB-IV catalase/oxygen pressure CFU); format: cell-based; details: formula with 4.97% amine at 4% aqueous dilution; for CFU one hour after first challenge: CFU/ml
Protocol: as §2
as §1, with “The addition of a known amount of a formulated HMB-IV oxidizing agent (hydrogen peroxide, buffer and chelating chemicals) to a standard volume of the sample fluid in a sealed test tube allows for an amount of oxygen proportional to the amount of active bacteria to be produced via the chemical reaction between active catalase enzyme and the hydrogen peroxide.” left out
as §3

[6] = Dissolution of HBHEBA in water; format: physicochemical; details: RT
Protocol: Drop weight measurements (i.e., the weight of a drop of one fluid as it is carefully released into another immiscible fluid) were used to evaluate the air/liquid and liquid/liquid interfacial tensions of 5% BDEA(aq) (butyldiethanolamine with C/OH ratio of 4), 5% HBHEEA(aq) (hydroxybutyl hydroxyethyl ethylamine with C/OH ratio of 4) and 2% HBHEBA(aq) (hydroxybutyl hydroxyethyl butylamine with C/OH ratio of 5) solutions at RT (22° C.). Note that a solution of 2% wt/wt of HBHEBA in water takes several minutes to form. About 1% wt/wt of HBHEBA dissolves in water fairly rapidly with stirring, while up to approximately 3% wt/wt can eventually be dissolved if stirring is continued for a longer period of time. The following relationship (oftentimes referred to as Tate's law) is used to relate drop weight to the interfacial tension between the drop fluid and the fluid being “dropped” into: […]

[7] = 5% (aq) solution dropped into Air
[8] = 5% (aq) solution dropped into Decane
[9] = AAA @ 3% in concentrate (1500 ppm diluted)
[10] = AAA @ 5% in concentrate (2500 ppm diluted)

SMILES | γ Drop to Fluid (air/liquid interfacial tension) [2, 7] [dynes/cm] | γ Drop to Fluid (liquid/liquid interfacial tension) [2, 8] [dynes/cm] | CFU per ml after 1 day [3, 9] [CFU per ml × 10^6] | CFU per ml after 4 days [3, 9] [CFU per ml × 10^6] | CFU per ml after 1 day [3, 10] [CFU per ml × 10^6] | CFU per ml after 4 days [3, 10] [CFU per ml × 10^6] | pH of test solution @ 25 days [4] | pH of test solution @ 90 days [4] | pH of test solution after first challenge [4] | CFU @ 3 days (2nd challenge) [5] | CFU @ 7 days (4 days after 2nd challenge) [5] | CFU @ 10 days (3rd challenge) [5] | CFU @ 14 days (4 days after 3rd challenge) [5] | CFU @ 25 days (7 days after fresh dilution) [5] | CFU @ 90 days (60 day idle period simulation) [5] | CFU one hour after first challenge [5] | further results
CCCCN(CCO)CCO [BDEA, N-butyldiethanolamine] | 41 | 13 | 11 | 9.0 | 3.5 | 2.1 |  |  |  |  |  |  |  |  |  |  | Time to complete phase separation of emulsion [1]: ≤ 30 min; Time to significant oil coalescence of emulsion [1]: ≤ 15 min
CCCCN(CCO)CCCC [DBAE, N,N-dibutylaminoethanol] |  |  |  |  |  |  | 8.2 | 7.7 | 9.4 | 310,000 CFU | 2,100,000 CFU | 4,000,000 CFU | 2,500,000 CFU | 2,900,000 CFU | 8,100,000 CFU | 740,000 CFU | 
C1CCC(NC2CCCCC2)CC1 [DCHA, dicyclohexylamine] |  |  |  |  |  |  | 8.2 | 7.7 | 9.1 | 410,000 CFU | 3,000,000 CFU | 3,900,000 CFU | 3,900,000 CFU | 4,000,000 CFU | 33,000,000 CFU | 630,000 CFU | 
CCCCN(CCO)CC(O)CC (stereo not shown) [HBHEBA, N-(2-hydroxybutyl)-N-(2-hydroxyethyl)-N-butylamine] |  |  | 7.3 | 5.0 | 3.0 | 1.2 | 8.2 | 7.6 | 9.1 | 140,000 CFU | 3,300,000 CFU | 4,500,000 CFU | 2,900,000 CFU | 1,700,000 CFU | 7,700,000 CFU | 610,000 CFU | γ Drop to Fluid (air/liquid interfacial tension) ([2]; 2% (aq) solution dropped into Air): 34 dynes/cm; γ Drop to Fluid (liquid/liquid interfacial tension) ([2]; 2% (aq) solution dropped into Decane): 8 dynes/cm; Amount that can eventually be dissolved in water ([6]; stirring continued for a longer period of time): approximately 3 % wt/wt; Amount dissolving in water fairly rapidly ([6]; with stirring): About 1 % wt/wt
CCC(O)CN(CC)CCO (stereo not shown) [HBHEEA, N-(2-hydroxybutyl)-N-(2-hydroxyethyl)-ethylamine] | 37 | 17 |  |  |  |  |  |  |  |  |  |  |  |  |  |  | Emulsion stability (visual) [1]: remained completely opaque with no visible signs of coalescence for several hours
